This note sets out measurements from patent publication US4197286A, “Testosterone derivatives and assay method” (Southwest Research Institute, priority 1977, dated 1980).

In this experiment the test system is anti-testosterone serum from rabbit No. X-181. As to the kind of experiment: Cross-reactivity of structurally similar steroids with the anti-testosterone serum. Type of experiment: binding. Conditions: antiserum of rabbit X-181; testosterone = 100.
Experimental: Also, the cross-reactivity of pertinent and structurally similar steroids was determined to be as follows:
For `C[C@]12CC(=O)[C@H]3[C@@H](CCC4=CC(=O)CC[C@@]43C)[C@@H]1CC[C@@H]2O` [11β-Oxotestosterone], the “% CROSS-REACTIVITY” value is reported as 1.80%. Take `C[C@]12CC[C@H]3[C@@H](C[C@H](O)C4=CC(=O)CC[C@@]43C)[C@@H]1CC[C@@H]2O` [6α-Hydroxytestosterone]: the “% CROSS-REACTIVITY” value was found to be 0.75%. Consider `C[C@]12CC[C@@H](O)C[C@@H]1CC[C@@H]1[C@@H]2CC[C@]2(C)[C@@H](O)CC[C@@H]12` [5α-Androstane-3α, 17β-diol], for which the “% CROSS-REACTIVITY” value is given as 0.00%. Consider `C[C@]12CC[C@H]3[C@@H](CCC4=CC(=O)CC[C@@]43C)[C@@H]1CC[C@@H]2C(=O)CO` [Deoxycorticosterone], for which the “% CROSS-REACTIVITY” value is on record as 0.00%. For the compound `C[C@]12CCC(=O)C[C@H]1CC[C@@H]1[C@@H]2CC[C@]2(C)C(=O)CC[C@@H]12` [5β-Androstane-3,17-dione], the “% CROSS-REACTIVITY” value came out at 0.00%. With `C[C@]12CC[C@@H]3c4ccc(O)cc4CC[C@H]3[C@@H]1C[C@@H](O)[C@@H]2O` [Estriol], the “% CROSS-REACTIVITY” value was determined as 0.00%. As to `C[C@]12C[C@H](O)[C@H]3[C@@H](CCC4=CC(=O)CC[C@@]43C)[C@@H]1CC[C@@H]2C(=O)CO` [Corticosterone], the “% CROSS-REACTIVITY” value worked out at 0.00%. In the case of `C[C@]12CCC(=O)C=C1CC[C@@H]1[C@@H]2[C@@H](O)C[C@]2(C)C(=O)CC[C@@H]12` [11β-Hydroxyandrostenodione], the “% CROSS-REACTIVITY” value stood at 0.00%. With `C[C@]12CCC(=O)C=C1CC[C@@H]1[C@@H]2CC[C@]2(C)C(=O)CC[C@@H]12` [Androstenedione], the “% CROSS-REACTIVITY” value came out at 0.90%. Take `C[C@]12CC[C@@H]3c4ccc(O)cc4CC[C@H]3[C@@H]1CC[C@@H]2O` [Estradiol]: the “% CROSS-REACTIVITY” value came to 0.43%. In the case of `C[C@]12CCC(=O)C[C@H]1CC[C@@H]1[C@@H]2CC[C@]2(C)[C@@H](O)CC[C@@H]12` [5β-Dihydrotestosterone], the “% CROSS-REACTIVITY” value stood at 0.63%.

Take `C[C@]12CC[C@H](O)C[C@@H]1CC[C@@H]1[C@@H]2CC[C@]2(C)C(=O)CC[C@@H]12` [Epiandrosterone]: the “% CROSS-REACTIVITY” value was 0.19%.

`C[C@]12CC[C@H]3[C@@H](CCC4=CC(=O)CC[C@@]43C)[C@@H]1CC[C@@H]2O` [Testosterone]: the “% CROSS-REACTIVITY” value came to 100.00%. In the case of `C[C@]12CC[C@@H](O)C[C@@H]1CC[C@@H]1[C@@H]2CC[C@]2(C)C(=O)CC[C@@H]12` [Androsterone], the “% CROSS-REACTIVITY” value is 0.00%.

`C[C@]12CCC(=O)C[C@@H]1CC[C@@H]1[C@@H]2CC[C@]2(C)[C@@H](O)CC[C@@H]12` [5α-Dihydrotestosterone]: the “% CROSS-REACTIVITY” value amounted to 6.65%. Consider `C[C@]12CC[C@H](O)C[C@@H]1CC[C@@H]1[C@@H]2CC[C@]2(C)[C@@H](O)CC[C@@H]12` [5α-Androstane-3β,17β-diol], for which the “% CROSS-REACTIVITY” value is 2.19%. Take `C[C@]12C[C@H](O)[C@H]3[C@@H](CCC4=CC(=O)CC[C@@]43C)[C@@H]1CC[C@@H]2O` [11β-Hydroxytestosterone]: the “% CROSS-REACTIVITY” value was found to be 0.00%. `C[C@]12CC[C@H](O)CC1=CC[C@@H]1[C@@H]2CC[C@]2(C)C(=O)CC[C@@H]12` [Dehydroepiandrosterone]: the “% CROSS-REACTIVITY” value turned out to be 0.00%.

Consider `CC(=O)[C@H]1CC[C@H]2[C@@H]3CCC4=CC(=O)CC[C@]4(C)[C@H]3CC[C@]12C` [Progesterone], for which the “% CROSS-REACTIVITY” value is recorded as 0.00%. For the compound `C[C@]12CC[C@@H]3c4ccc(O)cc4CC[C@H]3[C@@H]1CCC2=O` [Estrone], the “% CROSS-REACTIVITY” value is 0.00%. `C[C@]12CC[C@H]3[C@@H](CC=C4C[C@@H](O)CC[C@@]43C)[C@@H]1CC[C@@H]2O` [5-Androstene-3β,17β-diol]: the “% CROSS-REACTIVITY” value was 0.51%.
